Assay results: ChEMBL document CHEMBL3102771, “Regioselective synthesis of 3-benzyl substituted pyrimidino chromen-2-ones and evaluation of anti-microbial and anti-biofilm activities” (2014)
Converted amounts (≈) assume the structure as drawn. The source made the active and inactive calls. No cut-off for these calls is given here.

What was measured:
Assay type in all cases: functional
Pseudomonas aeruginosa [1] = test: Antibiofilm activity against Pseudomonas aeruginosa MTCC 2453 after 24 hrs by crystal violet staining technique
Staphylococcus aureus [2] = test: Antibiofilm activity against Staphylococcus aureus MLS-16 MTCC 2940 after 24 hrs by crystal violet staining technique
Staphylococcus aureus [3] = test: Antibiofilm activity against Staphylococcus aureus MTCC 96 after 24 hrs by crystal violet staining technique
Pseudomonas aeruginosa [4] = test: Antimicrobial activity against Pseudomonas aeruginosa MTCC 2453 assessed as growth inhibition after 24 hrs by well diffusion method; settings: MTCC 2453, 24 h
Bacillus subtilis = test: Antimicrobial activity against Bacillus subtilis MTCC 121 assessed as growth inhibition after 24 hrs by well diffusion method; settings: MTCC 121, 24 h
Staphylococcus aureus [5] = test: Antimicrobial activity against Staphylococcus aureus MLS-16 MTCC 2940 assessed as growth inhibition after 24 hrs by well diffusion method; settings: MLS-16 MTCC 2940, 24 h
Staphylococcus aureus [6] = test: Antimicrobial activity against Staphylococcus aureus MTCC 96 assessed as growth inhibition after 24 hrs by well diffusion method; settings: MTCC 96, 24 h
Micrococcus luteus = test: Antimicrobial activity against Micrococcus luteus MTCC 2470 assessed as growth inhibition after 24 hrs by well diffusion method; settings: MTCC 2470, 24 h

SMILES | MBEC (Pseudomonas aeruginosa [1]) | MBEC (Staphylococcus aureus [2]) | MBEC (Staphylococcus aureus [3]) | MIC (Pseudomonas aeruginosa [4]) | MIC (Bacillus subtilis) | MIC (Staphylococcus aureus [5]) | MIC (Staphylococcus aureus [6]) | MIC (Micrococcus luteus)
COc1ccc(-c2nn(-c3ccccc3)cc2C(c2c(O)c3cc(C)ccc3oc2=O)c2c(N)n(C)c(=O)n(C)c2=O)cc1 (stereo unspecified) | inactive | inactive | 10 µg/mL | > 150 µg/mL | 2.34 µg/mL (≈ 3.96 µM) | > 150 µg/mL | 4.68 µg/mL (≈ 7.91 µM) | 2.34 µg/mL (≈ 3.96 µM)
Cc1cc(O)c(C(c2c(N)n(C)c(=O)n(C)c2=O)C2CCCCC2)c(=O)o1 (stereo unspecified) |  |  |  | > 150 µg/mL | 150 µg/mL (≈ 400 µM) | > 150 µg/mL | > 150 µg/mL | > 150 µg/mL
Cn1c(N)c(C(c2cn(-c3ccccc3)nc2-c2ccccc2)c2c(O)c3cc(F)ccc3oc2=O)c(=O)n(C)c1=O (stereo unspecified) | inactive | 4 µg/mL | 10 µg/mL | > 150 µg/mL | 4.68 µg/mL (≈ 8.27 µM) | 1.17 µg/mL (≈ 2.07 µM) | 2.34 µg/mL (≈ 4.14 µM) | 2.34 µg/mL (≈ 4.14 µM)
Cc1ccc2oc(=O)c(C(c3ccc(C(C)C)cc3)c3c(N)n(C)c(=O)n(C)c3=O)c(O)c2c1 (stereo unspecified) |  |  |  | > 150 µg/mL | 9.37 µg/mL (≈ 20.3 µM) | 150 µg/mL (≈ 325 µM) | > 150 µg/mL | 75 µg/mL (≈ 163 µM)
Cn1c(N)c(C(c2ccc(C#N)cc2)c2c(O)c3ccc4ccccc4c3oc2=O)c(=O)n(C)c1=O (stereo unspecified) |  |  |  | > 150 µg/mL | 37.5 µg/mL (≈ 78 µM) | 37.5 µg/mL (≈ 78 µM) | > 150 µg/mL | 150 µg/mL (≈ 312 µM)
COc1cc(C(c2c(O)c3cc(F)ccc3oc2=O)c2c(N)n(C)c(=O)n(C)c2=O)ccc1O (stereo unspecified) | inactive | 40 µg/mL | inactive | > 150 µg/mL | 9.37 µg/mL (≈ 20 µM) | 37.5 µg/mL (≈ 79.9 µM) | 75 µg/mL (≈ 160 µM) | 9.37 µg/mL (≈ 20 µM)
Cn1c(N)c(C(c2ccc(C(F)(F)F)cc2)c2c(O)c3ccc4ccccc4c3oc2=O)c(=O)n(C)c1=O (stereo unspecified) | inactive | 10 µg/mL | 10 µg/mL | > 150 µg/mL | 9.37 µg/mL (≈ 17.9 µM) | 2.34 µg/mL (≈ 4.47 µM) | 9.37 µg/mL (≈ 17.9 µM) | 18.8 µg/mL (≈ 35.8 µM)
Cc1ccc2oc(=O)c(C(c3ccc(C(F)(F)F)cc3)c3c(N)n(C)c(=O)n(C)c3=O)c(O)c2c1 (stereo unspecified) | 20 µg/mL | 20 µg/mL | inactive | 9.37 µg/mL (≈ 19.2 µM) | 9.37 µg/mL (≈ 19.2 µM) | 18.8 µg/mL (≈ 38.5 µM) | > 150 µg/mL | 18.8 µg/mL (≈ 38.5 µM)
Cn1c(N)c(C(c2cn(-c3ccccc3)nc2-c2ccc(Cl)cc2)c2c(O)c3cc(F)ccc3oc2=O)c(=O)n(C)c1=O (stereo unspecified) | inactive | inactive | 4 µg/mL | > 150 µg/mL | 1.17 µg/mL (≈ 1.95 µM) | > 150 µg/mL | 1.17 µg/mL (≈ 1.95 µM) | 0.58 µg/mL (≈ 0.967 µM)
O=C(O)c1cn(C2CC2)c2cc(N3CCNCC3)c(F)cc2c1=O [CIPROFLOXACIN] | 4 µg/mL | 4 µg/mL | 4 µg/mL | 0.58 µg/mL (≈ 1.75 µM) | 0.58 µg/mL (≈ 1.75 µM) | 0.58 µg/mL (≈ 1.75 µM) | 0.58 µg/mL (≈ 1.75 µM) | 0.58 µg/mL (≈ 1.75 µM)
COc1cc(C(c2c(O)c3cc(F)ccc3oc2=O)c2c(N)n(C)c(=O)n(C)c2=O)cc(OC)c1O (stereo unspecified) |  |  |  | > 150 µg/mL | > 150 µg/mL | 37.5 µg/mL (≈ 75.1 µM) | > 150 µg/mL | 18.8 µg/mL (≈ 37.5 µM)
Cn1c(N)c(C(c2ccc(C#N)cc2)c2c(O)c3cc(F)ccc3oc2=O)c(=O)n(C)c1=O (stereo unspecified) |  |  |  | > 150 µg/mL | 75 µg/mL (≈ 167 µM) | 75 µg/mL (≈ 167 µM) | 75 µg/mL (≈ 167 µM) | > 150 µg/mL
Cc1ccc2oc(=O)c(C(c3ccc(C#N)cc3)c3c(N)n(C)c(=O)n(C)c3=O)c(O)c2c1 (stereo unspecified) |  |  |  | > 150 µg/mL | > 150 µg/mL | 150 µg/mL (≈ 337 µM) | > 150 µg/mL | > 150 µg/mL
COc1ccc(C(c2c(O)c3ccc4ccccc4c3oc2=O)c2c(N)n(C)c(=O)n(C)c2=O)cc1OC (stereo unspecified) |  |  |  | > 150 µg/mL | 18.8 µg/mL (≈ 36.4 µM) | 9.37 µg/mL (≈ 18.2 µM) | > 150 µg/mL | > 150 µg/mL
CCOc1cc(C(c2c(O)c3cc(C)ccc3oc2=O)c2c(N)n(C)c(=O)n(C)c2=O)ccc1O (stereo unspecified) | 20 µg/mL | 10 µg/mL | inactive | 9.37 µg/mL (≈ 19.5 µM) | 9.37 µg/mL (≈ 19.5 µM) | 9.37 µg/mL (≈ 19.5 µM) | 75 µg/mL (≈ 156 µM) | 9.37 µg/mL (≈ 19.5 µM)
CCCC(c1c(O)c2cc(C)ccc2oc1=O)c1c(N)n(C)c(=O)n(C)c1=O (stereo unspecified) |  |  |  | > 150 µg/mL | 18.8 µg/mL (≈ 48.6 µM) | 75 µg/mL (≈ 195 µM) | 75 µg/mL (≈ 195 µM) | 75 µg/mL (≈ 195 µM)
Cc1ccc2oc(=O)c(C(c3cn(-c4ccccc4)nc3-c3ccccc3)c3c(N)n(C)c(=O)n(C)c3=O)c(O)c2c1 (stereo unspecified) | inactive | inactive | 10 µg/mL | > 150 µg/mL | 2.34 µg/mL (≈ 4.17 µM) | > 150 µg/mL | 4.68 µg/mL (≈ 8.33 µM) | 2.34 µg/mL (≈ 4.17 µM)
Cc1ccc(-c2nn(-c3ccccc3)cc2C(c2c(O)c3cc(F)ccc3oc2=O)c2c(N)n(C)c(=O)n(C)c2=O)cc1 (stereo unspecified) | inactive | inactive | 4 µg/mL | > 150 µg/mL | 1.17 µg/mL (≈ 2.02 µM) | > 150 µg/mL | 2.34 µg/mL (≈ 4.04 µM) | 0.58 µg/mL (≈ 1 µM)
COc1ccc(C(c2c(O)c3cc(C)ccc3oc2=O)c2c(N)n(C)c(=O)n(C)c2=O)cc1 (stereo unspecified) |  |  |  | > 150 µg/mL | 75 µg/mL (≈ 167 µM) | 75 µg/mL (≈ 167 µM) | > 150 µg/mL | 75 µg/mL (≈ 167 µM)
Cn1c(N)c(C(c2cn(-c3ccccc3)nc2-c2ccc([N+](=O)[O-])cc2)c2c(O)c3cc(F)ccc3oc2=O)c(=O)n(C)c1=O (stereo unspecified) | inactive | inactive | 10 µg/mL | > 150 µg/mL | 2.34 µg/mL (≈ 3.83 µM) | > 150 µg/mL | 4.68 µg/mL (≈ 7.67 µM) | 2.34 µg/mL (≈ 3.83 µM)
Cc1cc(O)c(C(c2ccc(C(F)(F)F)cc2)c2c(N)n(C)c(=O)n(C)c2=O)c(=O)o1 (stereo unspecified) |  |  |  | > 150 µg/mL | 150 µg/mL (≈ 343 µM) | > 150 µg/mL | > 150 µg/mL | > 150 µg/mL
COc1ccc(-c2nn(-c3ccccc3)cc2C(c2c(O)c3cc(F)ccc3oc2=O)c2c(N)n(C)c(=O)n(C)c2=O)cc1 (stereo unspecified) | inactive | inactive | 10 µg/mL | > 150 µg/mL | 2.34 µg/mL (≈ 3.93 µM) | > 150 µg/mL | 4.68 µg/mL (≈ 7.86 µM) | 2.34 µg/mL (≈ 3.93 µM)
Cc1ccc2oc(=O)c(C(c3ccc(F)cc3)c3c(N)n(C)c(=O)n(C)c3=O)c(O)c2c1 (stereo unspecified) |  |  |  | > 150 µg/mL | 37.5 µg/mL (≈ 85.7 µM) | 150 µg/mL (≈ 343 µM) | > 150 µg/mL | > 150 µg/mL
